Assay results reported in patent US20250326748A1, “COMPOUNDS AND METHODS FOR MODULATING SPLICING” (REMIX THERAPEUTICS INC., priority 2022, published 2025).
Where a name gives a salt, the structure may show the parent alone. Read-outs that look alike come from different tables or passages of the source.

Columns and labels:
[1] = tested on: MYB mRNA; test: Splicing RT-qPCR assay, MYB canonical (CJ) and alternative (AJ) junction mRNA; format: cell-based, human; conditions: Homo sapiens; for IC50: canonical junction mRNA; for AC50: alternative junction mRNA, read-out: MYB AJ (AC50, increase in AJ mRNA)
Procedure, shortened: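 Read-out: one-step RT-qPCR on crude lysates measuring exon-exon junction isoforms, CJ for the canonical transcript and AJ for compound-induced exon inclusion. Normalization used PPIA for adherent A673 and GAPDH or GUSB for K562. Cells received 11 doses, 3-fold apart, top 10 uM, for 24 h.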

[2] = tested on: Target C mRNA; test: Splicing RT-qPCR panel, Target C canonical junction (CJ) mRNA; format: cell-based, human; conditions: Homo sapiens, read-out: Target C CJ (decrease in CJ mRNA levels, IC50)
Procedure, shortened: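 A673 cells (DMEM, 10% FBS) or K562 cells (IMDM, 10% FBS) treated 24 h at 37 °C with an 11-point 3-fold dilution, top 10 uM, DMSO ≤0.25%. Canonical-junction mRNA quantified in lysates by RT-qPCR, normalised to GAPDH, GUSB or PPIA and to DMSO (2^−ΔΔCt), then converted to % response.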

[3] = qPCR panel, read-out: MYB CJ (decrease in CJ mRNA levels, IC50)
[4] = RT-qPCR, A673 or K562 cells, 24 hours treatment
[5] = RT-qPCR, A673 or K562 cells, 24 hours treatment, read-out: MYB CJ (IC50, decrease in CJ mRNA)

SMILES | IC50 [1, 3] | AC50 [1, 4] | IC50 [1, 5] | IC50 [2]
COc1nc(-c2cc3cn(C)nc3c(F)c2O)nc2ncc(N3C[C@@H](C)N[C@@H](C)C3)cc12 [Compound 218] | < 100 nM | < 100 nM | < 100 nM | 100 to 1000 nM
COc1nc(-c2cc3cn(C)nc3c(F)c2O)nc2ncc(N3CCC(N(C)C)CC3)cc12 [Compound 219, 5-{6-[4-(dimethylamino)piperidin-1-yl]-4-methoxypyrido[2,3-d]pyrimidin-2-yl}-7-fluoro-2-methylindazol-6-ol] | < 100 nM | < 100 nM | < 100 nM | 100 to 1000 nM
Cc1c(O)c(-c2cc(-c3nnc[nH]3)c3cc(N4C[C@@H](C)N[C@@H](C)C4)cnc3n2)cc2cn(C)nc12 [Compound 261, 5-{6-[(3R,5S)-3,5-dimethylpiperazin-1-yl]-4-(4H-1,2,4-triazol-3-yl)-1,8-naphthyridin-2-yl}-2,7-dimethylindazol-6-ol] | < 100 nM | > 10000 nM | 1000 to 10000 nM | 100 to 1000 nM
C[C@@H]1CN(c2cnc3nc(-c4cc5cn(C)nc5c(F)c4O)ccc3c2)C[C@H](C)N1 [Compound 206] | < 100 nM | < 100 nM | < 100 nM | 100 to 1000 nM
Cn1cc2cc(-c3cnc4nc(N5CCNCC5)cc(Cl)c4c3)cc(F)c2n1 [Compound 101, 4-chloro-6-(7-fluoro-2-methyl-2H-indazol-5-yl)-2-(piperazin-1-yl)-1,8-naphthyridine] | 100 to 1000 nM | < 100 nM | 100 to 1000 nM | > 10000 nM
Cn1cc2cc(-c3cc(Cl)c4cc(N5CCN6CCCC6C5)cnc4n3)cc(F)c2n1 (stereo not drawn) [Compound 216, 4-chloro-2-(7-fluoro-2-methylindazol-5-yl)-6-{hexahydro-1H-pyrrolo[1,2-a]pyrazin-2-yl}-1,8-naphthyridine trifluoroacetic acid] | 100 to 1000 nM | 100 to 1000 nM | 100 to 1000 nM | > 10000 nM
Cc1cn2nc(-c3ccc4cc(NC5CCNCC5)cnc4n3)cc(C)c2n1 [Compound 210, 7-{2,8-dimethylimidazo[1,2-b]pyridazin-6-yl}-N-(piperidin-4-yl)-1,8-naphthyridin-3-amine; trifluoroacetic acid] | 1000 to 10000 nM | 1000 to 10000 nM | 1000 to 10000 nM | > 10000 nM
Cc1c(O)c(-c2cc(Cl)c3cc(N(C)C4CCNC4)cnc3n2)cc2cn(C)nc12 (stereo not drawn) [Compound 204, 5-[4-chloro-6-(367pyrrolidine-3-ylamino)-1,8-naphthyridin-2-yl]-2,7-dimethylindazol-6-ol] | 100 to 1000 nM | 100 to 1000 nM | 100 to 1000 nM | > 10000 nM
C[C@H]1CN(c2cnc3nc(-c4cc5cn(C)nc5cc4O)cc(Cl)c3c2)C[C@H](C)N1 [Compound 242] | < 100 nM | < 100 nM | < 100 nM | 1000 to 10000 nM
COc1nc(-c2cc3cn(C)nc3c(C)c2O)nc2ncc(N3CCC(N(C)C)CC3)cc12 [Compound 163, 5-{6-[4-(dimethylamino)piperidin-1-yl]-4-methoxypyrido[2,3-d]pyrimidin-2-yl}-2,7-dimethylindazol-6-ol] | 100 to 1000 nM | 100 to 1000 nM | 100 to 1000 nM | > 10000 nM
Cc1c(O)c(-c2ncc3cc(N4CC[C@@H](N)C4)cnc3n2)cc2cn(C)nc12 [Compound 159, (R)-5-(6-(3-aminopyrrolidin-1-yl)pyrido[2,3-d]pyrimidin-2-yl)-2,7-dimethyl-2H-indazol-6-ol 2,2,2-trifluoroacetate] | < 100 nM | < 100 nM | < 100 nM | 100 to 1000 nM
C[C@@H]1CN(c2cnc3nc(-c4cc5cn(C)nc5cc4O)cc(Cl)c3c2)C[C@@H](C)N1 [Compound 243, 5-{4-chloro-6-[(3R,5R)-3,5-dimethylpiperazin-1-yl]-1,8-naphthyridin-2-yl}-2-methylindazol-6-ol hydrochloride] | 100 to 1000 nM | 100 to 1000 nM | 100 to 1000 nM | 1000 to 10000 nM
Cc1nc2c(C)c(O)c(-c3cnc4cc(N5CCC(NC6CC6)C5)ccc4n3)cc2o1 (stereo not drawn) [Compound 182, 6-[6-[3-(cyclopropylamino)pyrrolidin-1-yl]quinoxalin-2-yl]-2,4-dimethyl-1,3-benzoxazol-5-ol] | < 100 nM | < 100 nM | < 100 nM | 100 to 1000 nM
COc1nc(-c2cc3cn(C)nc3c(C)c2O)nc2ncc(N3CCNCC3)cc12 [Compound 162, 5-[4-methoxy-6-(piperazin-1-yl)pyrido[2,3-d]pyrimidin-2-yl]-2,7-dimethylindazol-6-ol] | < 100 nM | < 100 nM | < 100 nM | 1000 to 10000 nM
Cn1cc2cc(-c3cc(Cl)c4cc(N5CCNCC5)cnc4n3)cc(F)c2n1 [Compound 103] | < 100 nM | < 100 nM | < 100 nM | 1000 to 10000 nM
